{"source": "ChEMBL document CHEMBL1201862", "about": "“PubChem BioAssay data set” (2004)", "key": {"[1]": {"assay": "Counterscreen for IDE inhibitors: Luminescence-based cell-based high throughput dose response assay to identify compounds that are cytotoxic to HEK cells. [Related pubchem assays: 434962 (Primary screen (IDE inhibitors in singlicate)), 449730 (Counterscreen (Cytotoxicity in triplicate)), 435028 (Confirmation (IDE inhibitors in triplicate)) …", "type": "functional", "conditions": "HEK293"}, "[2]": {"biological_target": "T1, RNA-binding protein pos-1 (Caenorhabditis elegans, UniProt G5EF15)", "T1 sequence (G5EF15 whole entry)": "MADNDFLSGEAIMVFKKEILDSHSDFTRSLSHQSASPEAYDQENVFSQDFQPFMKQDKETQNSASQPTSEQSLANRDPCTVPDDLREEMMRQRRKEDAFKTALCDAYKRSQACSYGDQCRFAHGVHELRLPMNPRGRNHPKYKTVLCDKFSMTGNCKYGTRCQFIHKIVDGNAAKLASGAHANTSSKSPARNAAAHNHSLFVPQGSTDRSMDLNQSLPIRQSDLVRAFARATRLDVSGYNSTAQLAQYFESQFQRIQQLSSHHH", "assay": "disruptors of C. elegans POS-1 RNA interaction – biochemical, fluorescence polarization, dose response (AID 1964);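 also: purified POS-1 fused to maltose binding protein made in E. coli; potency of compounds blocking POS-1 binding to fluorescent RNA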"}, "Insulin-degrading enzyme": {"biological_target": "T2, Insulin-degrading enzyme (Homo sapiens, UniProt P14735)", "T2 sequence (P14735 whole entry)": "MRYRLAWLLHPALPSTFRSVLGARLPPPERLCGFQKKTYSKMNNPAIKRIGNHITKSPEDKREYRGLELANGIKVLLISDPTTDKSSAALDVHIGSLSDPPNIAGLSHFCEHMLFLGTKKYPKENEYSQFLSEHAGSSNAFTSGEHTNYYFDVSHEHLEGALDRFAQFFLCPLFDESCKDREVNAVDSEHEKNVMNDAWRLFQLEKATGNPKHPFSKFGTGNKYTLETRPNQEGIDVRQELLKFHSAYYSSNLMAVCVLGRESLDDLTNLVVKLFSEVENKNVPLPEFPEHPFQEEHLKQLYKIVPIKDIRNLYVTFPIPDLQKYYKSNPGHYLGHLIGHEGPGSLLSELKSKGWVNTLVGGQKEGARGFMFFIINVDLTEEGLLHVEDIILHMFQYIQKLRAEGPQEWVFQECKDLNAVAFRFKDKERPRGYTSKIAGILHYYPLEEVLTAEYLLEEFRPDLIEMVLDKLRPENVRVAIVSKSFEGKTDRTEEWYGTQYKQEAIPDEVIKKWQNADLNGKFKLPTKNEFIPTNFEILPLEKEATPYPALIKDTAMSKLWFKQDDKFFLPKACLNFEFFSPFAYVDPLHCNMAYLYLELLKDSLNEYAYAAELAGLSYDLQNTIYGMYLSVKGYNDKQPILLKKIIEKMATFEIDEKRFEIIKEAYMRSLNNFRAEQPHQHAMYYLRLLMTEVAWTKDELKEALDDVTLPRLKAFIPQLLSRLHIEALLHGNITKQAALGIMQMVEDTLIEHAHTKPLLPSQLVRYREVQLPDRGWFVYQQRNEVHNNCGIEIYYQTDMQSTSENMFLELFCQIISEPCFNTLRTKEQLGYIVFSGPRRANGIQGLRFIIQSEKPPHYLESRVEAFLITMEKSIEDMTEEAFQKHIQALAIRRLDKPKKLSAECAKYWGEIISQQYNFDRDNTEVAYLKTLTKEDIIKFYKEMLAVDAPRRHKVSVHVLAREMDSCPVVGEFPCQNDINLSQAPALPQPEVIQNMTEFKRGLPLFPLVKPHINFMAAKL", "assay": "Dose Response: Fluorescence polarization-based cell-based high throughput dose response assay for inhibitors of insulin-degrading enzyme (IDE). [Related pubchem assays: 434962 (Primary screen (IDE inhibitors in singlicate)), 449730 (Counterscreen (Cytotoxicity in triplicate)), 435028 (Confirmation (IDE inhibitors in triplicate)), 434984 (Summary …", "type": "functional"}, "[3]": {"biological_target": "T3, Zinc finger protein mex-5 (Caenorhabditis elegans, UniProt Q9XUB2)", "T3 sequence (Q9XUB2 whole entry)": "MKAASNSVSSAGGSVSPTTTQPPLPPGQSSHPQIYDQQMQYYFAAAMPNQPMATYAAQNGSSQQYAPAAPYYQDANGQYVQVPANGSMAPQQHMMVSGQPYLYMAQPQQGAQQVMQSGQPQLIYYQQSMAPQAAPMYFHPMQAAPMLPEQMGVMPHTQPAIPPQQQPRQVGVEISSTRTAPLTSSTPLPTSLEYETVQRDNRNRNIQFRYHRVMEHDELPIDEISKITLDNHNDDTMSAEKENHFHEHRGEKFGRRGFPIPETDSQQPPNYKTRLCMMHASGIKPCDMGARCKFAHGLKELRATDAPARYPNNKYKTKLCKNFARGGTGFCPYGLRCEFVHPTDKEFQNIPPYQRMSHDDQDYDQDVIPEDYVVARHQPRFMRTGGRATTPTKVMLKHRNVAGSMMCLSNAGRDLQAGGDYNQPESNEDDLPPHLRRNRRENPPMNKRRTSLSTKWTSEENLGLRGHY", "assay": "potency of MEX-5 RNA-binding blockers – biochemical, C. elegans, fluorescence polarization, dose response (AID 1960)"}, "[4]": {"biological_target": "T4, Sphingosine 1-phosphate receptor 4 (Homo sapiens, UniProt O95977)", "T4 sequence (O95977 whole entry)": "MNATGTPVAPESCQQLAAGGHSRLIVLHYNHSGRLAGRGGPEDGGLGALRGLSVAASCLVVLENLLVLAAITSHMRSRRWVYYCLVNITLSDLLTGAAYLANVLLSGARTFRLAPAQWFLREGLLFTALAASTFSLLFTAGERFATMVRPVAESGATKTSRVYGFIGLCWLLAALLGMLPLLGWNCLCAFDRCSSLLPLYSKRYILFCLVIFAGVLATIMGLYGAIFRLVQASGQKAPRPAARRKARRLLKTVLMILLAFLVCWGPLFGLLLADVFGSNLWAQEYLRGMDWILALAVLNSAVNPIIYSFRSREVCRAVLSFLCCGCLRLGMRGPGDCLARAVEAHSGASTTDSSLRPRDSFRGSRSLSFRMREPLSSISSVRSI", "assay": "Fluorescence dose response cell-based high throughput screening assay for agonists of the Sphingosine 1-Phosphate Receptor 4 (S1P4). [Related pubchem assays: 1509 (Primary screen.), 1523 (Confirmation screen in triplicates.)]", "type": "functional"}, "[5]": {"biological_target": "Sphingosine 1-phosphate receptor 1 (Homo sapiens, UniProt P21453)", "sequence (P21453 whole entry)": "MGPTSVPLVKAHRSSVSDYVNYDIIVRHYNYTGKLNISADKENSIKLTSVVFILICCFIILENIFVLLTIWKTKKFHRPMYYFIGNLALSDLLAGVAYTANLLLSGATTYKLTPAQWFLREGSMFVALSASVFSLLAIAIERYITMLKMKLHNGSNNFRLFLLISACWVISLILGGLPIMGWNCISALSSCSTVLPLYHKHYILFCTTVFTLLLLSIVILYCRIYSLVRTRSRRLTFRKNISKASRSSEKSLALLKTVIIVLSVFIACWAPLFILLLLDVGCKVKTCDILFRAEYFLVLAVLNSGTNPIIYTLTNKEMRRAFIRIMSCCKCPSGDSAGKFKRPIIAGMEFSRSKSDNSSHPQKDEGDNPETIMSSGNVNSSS", "assay": "Fluorescence-based counterscreen assay for S1P4 agonists: Cell-based dose response high throughput screening assay to identify agonists of the Sphingosine 1-Phosphate Receptor 1 (S1P1). [Related pubchem assays (depositor defined):AID1509, AID1523, AID1801, AID463107, AID463118, AID463119, AID463122, AID463123, AID463129, AID463225, AID504400, AID504460]", "type": "functional"}, "CAAX prenyl protease 2": {"biological_target": "CAAX prenyl protease 2 (Homo sapiens, UniProt Q9Y256)", "sequence (Q9Y256 whole entry)": "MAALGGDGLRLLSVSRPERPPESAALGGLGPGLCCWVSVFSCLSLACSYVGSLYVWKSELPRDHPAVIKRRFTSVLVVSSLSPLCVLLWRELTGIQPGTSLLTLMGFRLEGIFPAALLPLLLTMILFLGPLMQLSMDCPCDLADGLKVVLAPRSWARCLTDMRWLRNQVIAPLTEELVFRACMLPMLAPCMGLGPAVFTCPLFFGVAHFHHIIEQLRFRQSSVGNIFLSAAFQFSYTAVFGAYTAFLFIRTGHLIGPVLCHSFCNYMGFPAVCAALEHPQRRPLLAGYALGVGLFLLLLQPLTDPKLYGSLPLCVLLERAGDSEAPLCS", "assay": "inhibition of Ras-converting CAAX protease Rce1 – biochemical, yeast membranes, quenched-peptide fluorescence, cherry-pick, dose response (AID 588849)"}, "[6]": {"biological_target": "Kappa-type opioid receptor (Homo sapiens, UniProt P41145)", "sequence (P41145 whole entry)": "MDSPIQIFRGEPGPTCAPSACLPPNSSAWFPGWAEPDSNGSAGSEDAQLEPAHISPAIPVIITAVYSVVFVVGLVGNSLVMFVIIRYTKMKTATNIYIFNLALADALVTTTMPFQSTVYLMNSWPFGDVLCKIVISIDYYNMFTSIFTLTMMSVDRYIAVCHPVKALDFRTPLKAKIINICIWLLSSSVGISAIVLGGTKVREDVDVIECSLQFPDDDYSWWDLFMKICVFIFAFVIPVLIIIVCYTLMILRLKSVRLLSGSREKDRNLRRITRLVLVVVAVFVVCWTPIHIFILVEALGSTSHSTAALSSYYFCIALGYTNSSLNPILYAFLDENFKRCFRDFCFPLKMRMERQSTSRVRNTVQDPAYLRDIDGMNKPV", "assay": "SAR analysis of small molecule agonists of the kappa opioid receptor via a luminescent beta-arrestin assay - Set 3. [Related pubchem assays (depositor defined):AID1777, AID1785, AID1786, AID1966, AID2133, AID2136, AID2284, AID2500]", "type": "functional"}, "[7]": {"biological_target": "Lysine-specific demethylase 4A (Homo sapiens, UniProt O75164)", "sequence (O75164 whole entry)": "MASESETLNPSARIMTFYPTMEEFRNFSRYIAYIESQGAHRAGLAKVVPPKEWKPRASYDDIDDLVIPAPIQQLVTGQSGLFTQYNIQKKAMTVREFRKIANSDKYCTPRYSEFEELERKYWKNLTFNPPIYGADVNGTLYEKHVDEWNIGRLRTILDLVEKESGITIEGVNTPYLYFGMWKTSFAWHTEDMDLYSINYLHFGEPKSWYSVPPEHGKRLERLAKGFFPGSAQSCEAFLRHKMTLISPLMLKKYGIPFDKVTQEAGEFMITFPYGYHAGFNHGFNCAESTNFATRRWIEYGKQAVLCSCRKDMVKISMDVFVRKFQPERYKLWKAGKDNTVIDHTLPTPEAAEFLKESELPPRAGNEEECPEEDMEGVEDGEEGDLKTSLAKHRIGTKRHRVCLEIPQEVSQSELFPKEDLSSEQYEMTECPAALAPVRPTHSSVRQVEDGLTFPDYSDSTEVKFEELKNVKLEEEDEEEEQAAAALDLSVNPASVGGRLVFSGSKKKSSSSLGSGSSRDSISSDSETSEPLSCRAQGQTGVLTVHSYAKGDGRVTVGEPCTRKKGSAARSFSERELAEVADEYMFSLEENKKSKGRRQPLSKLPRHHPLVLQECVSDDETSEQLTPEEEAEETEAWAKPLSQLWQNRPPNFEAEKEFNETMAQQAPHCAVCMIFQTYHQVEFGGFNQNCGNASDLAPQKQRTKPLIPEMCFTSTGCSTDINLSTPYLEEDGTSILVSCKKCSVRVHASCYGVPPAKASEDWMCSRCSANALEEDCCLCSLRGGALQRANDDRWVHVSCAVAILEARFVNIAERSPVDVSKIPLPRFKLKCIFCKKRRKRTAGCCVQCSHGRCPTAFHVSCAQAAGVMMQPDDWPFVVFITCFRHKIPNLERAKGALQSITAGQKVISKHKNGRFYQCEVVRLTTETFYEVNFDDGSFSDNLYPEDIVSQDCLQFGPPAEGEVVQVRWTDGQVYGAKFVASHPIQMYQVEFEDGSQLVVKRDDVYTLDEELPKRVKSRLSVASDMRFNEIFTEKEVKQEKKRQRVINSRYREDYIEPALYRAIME", "assay": "inhibition of JMJD2A H3K9me3 demethylation – biochemical, DELFIA europium, cherry-picked samples, selectivity assay for GASC-1 inhibitor project, dose response (AID 488840)"}, "[8]": {"biological_target": "Lysine-specific demethylase 4C (Homo sapiens, UniProt Q9H3R0)", "sequence (Q9H3R0 whole entry)": "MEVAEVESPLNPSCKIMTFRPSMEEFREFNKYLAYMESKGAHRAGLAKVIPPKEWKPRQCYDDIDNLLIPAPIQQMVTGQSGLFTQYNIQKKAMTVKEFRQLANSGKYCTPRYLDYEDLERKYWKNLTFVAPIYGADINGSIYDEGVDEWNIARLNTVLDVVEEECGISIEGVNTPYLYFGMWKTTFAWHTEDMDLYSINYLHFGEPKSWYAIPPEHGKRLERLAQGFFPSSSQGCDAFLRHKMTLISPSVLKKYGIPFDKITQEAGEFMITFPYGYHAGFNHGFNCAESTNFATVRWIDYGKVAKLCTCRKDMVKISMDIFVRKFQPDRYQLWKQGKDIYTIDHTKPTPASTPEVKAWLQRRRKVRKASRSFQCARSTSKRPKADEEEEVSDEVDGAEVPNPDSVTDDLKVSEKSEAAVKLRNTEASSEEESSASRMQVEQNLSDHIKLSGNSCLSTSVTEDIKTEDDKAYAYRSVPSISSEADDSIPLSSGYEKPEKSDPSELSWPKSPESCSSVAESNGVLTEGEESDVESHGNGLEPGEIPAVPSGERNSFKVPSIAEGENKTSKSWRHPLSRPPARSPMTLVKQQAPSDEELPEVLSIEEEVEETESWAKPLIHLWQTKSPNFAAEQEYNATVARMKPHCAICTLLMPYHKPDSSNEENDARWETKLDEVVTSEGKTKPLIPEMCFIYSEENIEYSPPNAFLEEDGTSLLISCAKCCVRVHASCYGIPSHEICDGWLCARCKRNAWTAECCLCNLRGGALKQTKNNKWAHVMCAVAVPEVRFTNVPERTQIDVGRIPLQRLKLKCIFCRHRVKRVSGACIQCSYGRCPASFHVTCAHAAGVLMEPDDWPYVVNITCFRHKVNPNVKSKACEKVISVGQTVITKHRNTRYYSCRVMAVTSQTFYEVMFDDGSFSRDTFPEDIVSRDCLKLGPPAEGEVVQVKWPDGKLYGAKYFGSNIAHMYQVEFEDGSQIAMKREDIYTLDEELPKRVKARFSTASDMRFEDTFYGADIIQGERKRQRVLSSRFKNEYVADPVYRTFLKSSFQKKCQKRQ", "assay": "inhibition of JMJD2C H3K9me3 demethylation – biochemical, DELFIA europium, cherry-picked samples, dose response (AID 488835)", "type": "functional"}}, "note": "Calls of active or inactive are those of the source.", "data": [{"smiles": "COc1ccc(C2CC(c3cccs3)=NN2c2ccc(C=O)cc2)cc1", "note": "(stereo not given)", "values": [{"measurement": "IC50", "setting": "[1]", "value": "41.2 µM (not active)"}, {"measurement": "EC50", "setting": "[2]", "value": "18.3 µM (active)"}, {"measurement": "IC50", "setting": "Insulin-degrading enzyme", "value": "> 55.9 µM (not active)"}, {"measurement": "EC50", "setting": "[3]", "value": "24.6 µM (active)"}, {"measurement": "EC50", "setting": "[4]", "value": "8.63 µM (active)"}, {"measurement": "EC50", "setting": "[5]", "value": "12.5 µM (inactive)"}, {"measurement": "AC50", "setting": "CAAX prenyl protease 2", "value": "8.53 µM (active)"}]}, {"smiles": "Brc1ccc(CSc2nnc(-c3ccccn3)n2Cc2cccnc2)cc1", "values": [{"measurement": "EC50", "setting": "[6]", "value": "8.51 µM (active)"}]}, {"smiles": "COc1ccccc1NC(=O)COC(=O)c1nc(O)nc(O)c1N", "values": [{"measurement": "AC50", "setting": "[7]", "value": "8.34 µM (active)"}, {"measurement": "AC50", "setting": "[8]", "value": "6.73 µM (active)"}]}]}
